{"source": "BindingDB's records for patent US20250282782", "about": "(Genzyme, 2025)", "molecular_target": "T1, Tyrosine-protein phosphatase non-receptor type 11 (Homo sapiens, UniProt Q06124)", "T1 sequence (Q06124 whole entry)": "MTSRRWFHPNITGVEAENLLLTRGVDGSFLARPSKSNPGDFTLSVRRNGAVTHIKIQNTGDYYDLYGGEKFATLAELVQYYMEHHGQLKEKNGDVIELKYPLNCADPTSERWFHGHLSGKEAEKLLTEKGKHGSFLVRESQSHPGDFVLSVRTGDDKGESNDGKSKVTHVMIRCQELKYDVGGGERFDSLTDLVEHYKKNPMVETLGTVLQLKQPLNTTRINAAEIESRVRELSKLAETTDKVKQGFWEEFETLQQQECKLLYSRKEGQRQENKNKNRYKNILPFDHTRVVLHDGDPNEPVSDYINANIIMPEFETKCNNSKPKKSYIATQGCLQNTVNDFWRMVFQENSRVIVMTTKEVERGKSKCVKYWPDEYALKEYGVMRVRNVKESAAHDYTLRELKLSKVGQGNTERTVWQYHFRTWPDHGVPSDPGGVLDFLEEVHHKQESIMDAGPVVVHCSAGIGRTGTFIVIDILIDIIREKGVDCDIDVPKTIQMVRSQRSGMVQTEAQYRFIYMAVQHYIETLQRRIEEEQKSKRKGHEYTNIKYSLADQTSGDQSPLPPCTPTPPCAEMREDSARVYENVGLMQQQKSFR", "assay": "Inhibition of SHP2 Phosphatase Activity Assay", "procedure": "Inhibition of SHP2 phosphatase activity was evaluated using human recombinant 6His-Nterm (SEQ ID NO: 1) SHP2 full-length (Thr2-Arg593, R&D system), NsCs bi-phosphorylated activating peptide (NH2-LN(pY)AQLWHA(PEG8)LTI(pY)ATIRRF-Amide.acetate (SEQ ID NO: 2), Thermofischer Scientific) and DiFMUP as surrogate phosphatase substrate (Molecular Probes). All reactions were performed at room temperature in 384-well black polystyrene non-binding plate (Corning) with the assay buffer (50 mM HEPES-NaOH pH 7.2, 100 mM NaCl, 0.5 mM EDTA, 0.001% Brij35 including 0.02% BSA and 1 mM DTT added extemporaneously). SHP2 was pre-incubated at least 10 min with the activating peptide (0.2 nM and 100 nM, respectively). 10 μL of this mixture was added to the assay plate, that already contained 15 nL of the compound (1000-0.05 nM). After 30 min pre-incubation, the enzymatic reaction was initiated by the addition of 5 μL DiFMUP in assay buffer without BSA (20 μM). The reaction was stopped by the addition of 15 μL sodium pervanadate solution (100 μM) after 45 min incubation. The fluorescence signal was measured at excitation and emission wavelengths of 350 nm and 450 nm, respectively, using a Pherastar instrument (BMG-LabTech)."}
{"smiles": "Cc1ccc(F)c(-c2c(C)nc(N3CCC4(CC3)Cc3ncccc3[C@H]4N)c3ccnn23)c1", "note": "[US20250282782, Compound 205]", "values": [{"measurement": "IC50", "value": 11, "unit": "nM"}]}
{"smiles": "Cc1nc(N2CCC3(CC2)Cc2scnc2[C@H]3N)c2ccnn2c1-c1ccccc1F", "note": "[US20250282782, Compound 66]", "values": [{"measurement": "IC50", "value": 22, "unit": "nM"}]}
{"smiles": "Cc1cc2c(cn1)CC1(CCN(c3nc(C)c(-c4cnn(C)c4C)n4nccc34)CC1)[C@@H]2N", "note": "[US20250282782, Compound 113]", "values": [{"measurement": "IC50", "value": 28, "unit": "nM"}]}
{"smiles": "Cc1nc(N2CCC3(CC2)Cc2scnc2[C@H]3N)c2ccnn2c1-c1cnn(C)c1C", "note": "[US20250282782, Compound 67]", "values": [{"measurement": "IC50", "value": 115, "unit": "nM"}]}
{"smiles": "Cc1nc(N2CCC3(CC2)Cc2ncccc2[C@H]3N)c2ccnn2c1-c1cc2c(cc1F)OCCO2", "note": "[US20250282782, Compound 58]", "values": [{"measurement": "IC50", "value": 35, "unit": "nM"}]}
{"smiles": "Cc1nc(N2CCC3(CC2)Cc2ncsc2[C@H]3N)c2ccnn2c1-c1cnn(C)c1C", "note": "[US20250282782, Compound 72]", "values": [{"measurement": "IC50", "value": 27, "unit": "nM"}]}
